Structures are written as SMILES.

The target of this assay is human TRPV3 receptors (Homo sapiens (Human), UniProt Q8NET8). The experiment in a line: Calcium flux assay (FLIPR TETRA), inhibition of the 2-APB response. The class given is cell-based. The conditions noted are these: recombinant HEK293 cells stably expressing TRPV3, Calcium-4 dye, 2-APB at its EC80. Summed up: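 HEK293 cells stably expressing human and mouse TRPV3, plated the day before and dye-loaded 90-120 min in the dark, read on FLIPR Tetra. Peak fluorescence increase over baseline was expressed as percent of the maximal 2-APB response without compound.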
Sequence of human TRPV3 receptors (Q8NET8 whole entry): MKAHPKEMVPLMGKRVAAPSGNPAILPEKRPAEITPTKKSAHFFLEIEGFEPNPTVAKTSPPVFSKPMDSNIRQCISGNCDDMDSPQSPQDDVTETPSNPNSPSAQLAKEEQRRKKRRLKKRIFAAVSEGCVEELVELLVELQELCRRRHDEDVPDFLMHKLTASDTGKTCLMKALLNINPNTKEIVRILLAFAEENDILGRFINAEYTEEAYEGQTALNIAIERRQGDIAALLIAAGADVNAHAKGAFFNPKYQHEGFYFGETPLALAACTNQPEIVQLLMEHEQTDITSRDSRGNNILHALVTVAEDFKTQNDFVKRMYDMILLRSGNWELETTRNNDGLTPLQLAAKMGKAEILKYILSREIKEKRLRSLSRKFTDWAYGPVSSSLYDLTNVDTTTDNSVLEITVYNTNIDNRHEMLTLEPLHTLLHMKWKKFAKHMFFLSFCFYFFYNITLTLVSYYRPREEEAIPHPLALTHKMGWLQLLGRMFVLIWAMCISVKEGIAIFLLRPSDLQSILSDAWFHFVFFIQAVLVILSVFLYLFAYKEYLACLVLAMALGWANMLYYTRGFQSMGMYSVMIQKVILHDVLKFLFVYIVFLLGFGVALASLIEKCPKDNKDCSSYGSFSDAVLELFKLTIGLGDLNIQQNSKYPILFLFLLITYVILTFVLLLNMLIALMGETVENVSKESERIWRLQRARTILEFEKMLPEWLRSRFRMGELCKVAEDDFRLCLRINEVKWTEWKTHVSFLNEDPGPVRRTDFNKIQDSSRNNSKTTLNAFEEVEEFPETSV
For orientation: IC50 means the concentration that inhibits the measured activity by half. With `C=C(c1ccccc1)c1ccc(F)c(CN[C@@H](CO)C(C)C)n1` [Example 124, (2R)-2-({[3-fluoro-6-(1-phenylethenyl)pyridin-2-yl]methyl}amino)-3-methylbutan-1-ol], the IC50 stood at 920 nM.
The value for `O[C@@H]1CCC[C@@H]1NCc1ccnc(-c2ccc(C(F)(F)F)cc2)n1` [Example 173, (1R,2S)-2-[({2-[4-(trifluoromethyl)phenyl]pyrimidin-4-yl}methyl)amino]cyclopentanol] was greater than 20000 nM; that for `CC(C)[C@H](CO)NCc1nc(C2CCC(F)(F)CC2)ccc1F` [Example 203, (2R)-2-({[6-(4,4-difluorocyclohexyl)-3-fluoropyridin-2-yl]methyl}amino)-3-methylbutan-1-ol] was 530 nM.
Under `C[C@H](CO)NCc1ccnc(-c2ccc(C(F)(F)F)cc2)n1` [Example 137, (2R)-2-[({2-[4-(trifluoromethyl)phenyl]pyrimidin-4-yl}methyl)amino]propan-1-ol] stands 7830 nM; under `CC(C)[C@H](CO)NCc1ccnc(-c2ccc(S(=O)(=O)C(F)(F)F)cc2)n1` [Example 207, (2R)-3-methyl-2-{[(2-{4-[(trifluoromethyl)sulfonyl]phenyl}pyrimidin-4-yl)methyl]amino}butan-1-ol], 680 nM.
With `CC(C)[C@H](CO)NCc1nc(N2CCc3ccc(C(F)(F)F)cc3C2)ccc1F` [Example 103, (2R)-2-[({3-fluoro-6-[7-(trifluoromethyl)-3,4-dihydroisoquinolin-2(1H)-yl]-pyridin-2-yl}methyl)amino]-3-methylbutan-1-ol], the IC50 turned out to be 260 nM.
Under `COc1ccc(C#Cc2ccc(F)c(CN[C@@H](CO)C(C)C)n2)cc1` [Example 235, (2R)-2-[({3-fluoro-6-[(4-methoxyphenyl)ethynyl]pyridin-2-yl}methyl)amino]-3-methylbutan-1-ol] stands 1110 nM; under `CC(C)[C@H](NCc1nc(-c2ccc(C(F)(F)F)nc2)ccc1F)C(N)=O` [Example 119, (S)-2-((5-fluoro-6′-(trifluoromethyl)-2,3′-bipyridin-6-yl)methylamino)-3-methylbutanamide], greater than 20000 nM; under `CC(C)[C@H](CO)NCc1nc(C2CCN(C(=O)OC(C)(C)C)CC2)ccc1F` [Example 205, tert-butyl 4-[5-fluoro-6-({[(2R)-1-hydroxy-3-methylbutan-2-yl]amino}methyl)pyridin-2-yl]piperidine-1-carboxylate], 2460 nM.
Under `CC(C)[C@H](CO)NCc1nc(-c2ccc(F)c(F)c2)ccc1F` [Example 228, (2R)-2-({[6-(3,4-difluorophenyl)-3-fluoropyridin-2-yl]methyl}amino)-3-methylbutan-1-ol] stands 140 nM; under `OC[C@H](NCc1nc(-c2ccc(C(F)(F)F)nc2)ccc1F)C1CC1` [Example 75, (2R)-2-cyclopropyl-2-({[5-fluoro-6′-(trifluoromethyl)-2,3′-bipyridin-6-yl]methyl}amino)ethanol], 3020 nM.
As to `CCN(CC)C(=O)c1cccc(-c2ccc(F)c(CN[C@@H](CO)C(C)C)n2)c1` [Example 41, N,N-diethyl-3-[5-fluoro-6-({[(2R)-1-hydroxy-3-methylbutan-2-yl]amino}methyl)pyridin-2-yl]benzamide], the IC50 is 2970 nM.
The value for `Cc1ccc(S(=O)(=O)N(C)C)cc1-c1ccc(F)c(CN[C@@H](CO)C(C)C)n1` [Example 50, 3-[5-fluoro-6-({[(2R)-1-hydroxy-3-methylbutan-2-yl]amino}methyl)pyridin-2-yl]-N,N,4-trimethylbenzenesulfonamide] was 1770 nM; that for `CC(C)(CO)CNCc1ccnc(-c2ccc(C(F)(F)F)cc2)n1` [Example 156, 2,2-dimethyl-3-[({2-[4-(trifluoromethyl)phenyl]pyrimidin-4-yl}methyl)amino]propan-1-ol] was greater than 20000 nM; that for `CC(C)[C@H](CO)NCc1cccc(C#Cc2ccc(Cl)cc2)n1` [Example 286, (2R)-2-[({6-[(4-chlorophenyl)ethynyl]pyridin-2-yl}methyl)amino]-3-methylbutan-1-ol] was 520 nM.
Turning to `CC(C)[C@H](CO)NCc1nc(-c2cccc(S(=O)(=O)N3CCCCC3)c2)ccc1F` [Example 48, (2R)-2-[({3-fluoro-6-[3-(piperidin-1-ylsulfonyl)phenyl]pyridin-2-yl}methyl)amino]-3-methylbutan-1-ol], the IC50 turned out to be 330 nM.
Turning to `CC(C)[C@H](CO)NCc1nc(-c2cccc(S(=O)(=O)N(C)C)c2)ccc1F` [Example 39, 3-[5-fluoro-6-({[(2R)-1-hydroxy-3-methylbutan-2-yl]amino}methyl)pyridin-2-yl]-N,N-dimethylbenzenesulfonamide], the IC50 amounted to 1700 nM.
Under `CC(C)[C@H](CO)NCc1nc(C#Cc2ccccc2)ccc1F` [Example 289, (2R)-2-({[3-fluoro-6-(phenylethynyl)pyridin-2-yl]methyl}amino)-3-methylbutan-1-ol] stands 130 nM; under `OCC1(NCc2cccc(-c3cc(C(F)(F)F)cc(C(F)(F)F)c3)n2)CCCC1` [Example 272, {1-[({6-[3,5-bis(trifluoromethyl)phenyl]pyridin-2-yl}methyl)amino]cyclopentyl}methano 1], 220 nM; under `OCC1(NCc2nc(-c3ccc(C(F)(F)F)cc3)ccc2F)CCCC1` [Example 80, {1-[({3-fluoro-6-[4-(trifluoromethyl)phenyl]pyridin-2-yl}methyl)amino]cyclopentyl}methanol], 290 nM.
Under `OC[C@@H](NCc1ccnc(-c2ccc(C(F)(F)F)cc2)n1)[C@H](O)c1ccccc1` [Example 154, (1R,2R)-1-phenyl-2-[({2-[4-(trifluoromethyl)phenyl]pyrimidin-4-yl}methyl)amino]propane-1,3-diol] stands greater than 20000 nM.
As for `C[C@@H](O)CNCc1ccnc(-c2ccc(C(F)(F)F)cc2)n1` [Example 183, (2R)-1-[({2-[4-(trifluoromethyl)phenyl]pyrimidin-4-yl}methyl)amino]propan-2-ol], the IC50 is greater than 20000 nM.
For the compound `CC(C)[C@H](CO)NCc1nc(N2CCCC(C(F)(F)F)C2)ccc1F` (stereo partly drawn) [Example 65, (2R)-2-[({3-fluoro-6-[3-(trifluoromethyl)piperidin-1-yl]pyridin-2-yl}methyl)amino]-3-methylbutan-1-ol], the IC50 stood at 320 nM.
The value for `COc1ccc(-c2ccc(C(F)(F)F)nc2)nc1CN[C@@H](CO)C(C)C` [Example 112, (2R)-2-({[5-methoxy-6′-(trifluoromethyl)-2,3′-bipyridin-6-yl]methyl}amino)-3-methylbutan-1-ol] was 15300 nM; that for `CC(C)[C@H](CO)NCc1nc(N2CCc3ccccc3C2)ccc1F` [Example 70, (2R)-2-({[6-(3,4-dihydroisoquinolin-2(1H)-yl)-3-fluoropyridin-2-yl]methyl}amino)-3-methylbutan-1-ol] was 180 nM; that for `OC[C@H](NCc1nc(-c2ccc(C(F)(F)F)cc2)ccc1F)C1CC1` [Example 29, (2R)-2-cyclopropyl-2-[({3-fluoro-6-[4-(trifluoromethyl)phenyl]pyridin-2-yl}methyl)amino]ethano 1] was 410 nM.
`CC(C)Oc1cccc(-c2ccc(F)c(CN[C@@H](CO)C(C)C)n2)c1` [Example 24, (2R)-2-[({3-fluoro-6-[3-(propan-2-yloxy)phenyl]pyridin-2-yl}methyl)amino]-3-methylbutan-1-ol]: the IC50 amounted to 750 nM.

Values taken from US9012651B2, “TRPV3 modulators” (AbbVie Inc., priority 2011, dated 2015).
